pIC50: −log10 of the molar value.
Experiments:
[1] = (§1) Cytotoxicity against human MCF7 cells after 72 hrs by MTT assay; type: functional, cell-based; details: MCF7, 72 h
[2] = (§2) Cytotoxicity against human A549 cells after 72 hrs by MTT assay; type: functional, cell-based; details: A549, 72 h
[3] = (§3) Cytotoxicity against human HepG2 cells after 72 hrs by MTT assay; type: functional, cell-based; details: HepG2, 72 h
[4] = (§4) Cytotoxicity against human PC3 cells after 72 hrs by MTT assay; type: functional, cell-based; details: PC-3, 72 h
[5] = target: Serine/threonine-protein kinase B-raf (Homo sapiens, UniProt P15056); assay: Inhibition of BRAF (unknown origin) using FAM-labeled peptide as substrate after 1 hr by Lanthascreen assay
Sequence of Serine/threonine-protein kinase B-raf (P15056 whole entry): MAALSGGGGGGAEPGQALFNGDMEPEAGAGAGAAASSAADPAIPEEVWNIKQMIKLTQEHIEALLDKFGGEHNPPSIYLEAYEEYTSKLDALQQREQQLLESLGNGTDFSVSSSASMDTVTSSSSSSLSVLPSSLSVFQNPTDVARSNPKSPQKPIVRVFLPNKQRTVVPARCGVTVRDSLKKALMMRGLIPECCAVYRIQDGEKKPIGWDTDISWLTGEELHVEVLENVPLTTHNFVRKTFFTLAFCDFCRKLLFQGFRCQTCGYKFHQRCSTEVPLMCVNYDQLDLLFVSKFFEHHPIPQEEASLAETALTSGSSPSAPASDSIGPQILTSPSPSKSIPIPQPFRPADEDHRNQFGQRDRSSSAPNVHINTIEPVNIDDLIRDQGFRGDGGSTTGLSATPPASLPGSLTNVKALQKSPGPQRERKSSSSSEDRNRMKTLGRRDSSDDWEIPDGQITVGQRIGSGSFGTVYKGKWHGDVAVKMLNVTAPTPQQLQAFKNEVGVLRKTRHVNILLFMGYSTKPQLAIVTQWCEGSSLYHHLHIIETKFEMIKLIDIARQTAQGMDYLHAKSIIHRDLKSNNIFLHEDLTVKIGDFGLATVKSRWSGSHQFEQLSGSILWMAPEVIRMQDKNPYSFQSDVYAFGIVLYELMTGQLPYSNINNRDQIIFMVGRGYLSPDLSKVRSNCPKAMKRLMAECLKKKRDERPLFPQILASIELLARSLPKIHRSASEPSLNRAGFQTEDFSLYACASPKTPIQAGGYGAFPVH

[6] = target: Vascular endothelial growth factor receptor 2 (Homo sapiens, UniProt P35968); assay: Inhibition of VEGFR2 (unknown origin) using FAM-labeled peptide as substrate preincubated for 10 mins followed by substrate addition by mobility shift assay
Sequence of Vascular endothelial growth factor receptor 2 (P35968 whole entry): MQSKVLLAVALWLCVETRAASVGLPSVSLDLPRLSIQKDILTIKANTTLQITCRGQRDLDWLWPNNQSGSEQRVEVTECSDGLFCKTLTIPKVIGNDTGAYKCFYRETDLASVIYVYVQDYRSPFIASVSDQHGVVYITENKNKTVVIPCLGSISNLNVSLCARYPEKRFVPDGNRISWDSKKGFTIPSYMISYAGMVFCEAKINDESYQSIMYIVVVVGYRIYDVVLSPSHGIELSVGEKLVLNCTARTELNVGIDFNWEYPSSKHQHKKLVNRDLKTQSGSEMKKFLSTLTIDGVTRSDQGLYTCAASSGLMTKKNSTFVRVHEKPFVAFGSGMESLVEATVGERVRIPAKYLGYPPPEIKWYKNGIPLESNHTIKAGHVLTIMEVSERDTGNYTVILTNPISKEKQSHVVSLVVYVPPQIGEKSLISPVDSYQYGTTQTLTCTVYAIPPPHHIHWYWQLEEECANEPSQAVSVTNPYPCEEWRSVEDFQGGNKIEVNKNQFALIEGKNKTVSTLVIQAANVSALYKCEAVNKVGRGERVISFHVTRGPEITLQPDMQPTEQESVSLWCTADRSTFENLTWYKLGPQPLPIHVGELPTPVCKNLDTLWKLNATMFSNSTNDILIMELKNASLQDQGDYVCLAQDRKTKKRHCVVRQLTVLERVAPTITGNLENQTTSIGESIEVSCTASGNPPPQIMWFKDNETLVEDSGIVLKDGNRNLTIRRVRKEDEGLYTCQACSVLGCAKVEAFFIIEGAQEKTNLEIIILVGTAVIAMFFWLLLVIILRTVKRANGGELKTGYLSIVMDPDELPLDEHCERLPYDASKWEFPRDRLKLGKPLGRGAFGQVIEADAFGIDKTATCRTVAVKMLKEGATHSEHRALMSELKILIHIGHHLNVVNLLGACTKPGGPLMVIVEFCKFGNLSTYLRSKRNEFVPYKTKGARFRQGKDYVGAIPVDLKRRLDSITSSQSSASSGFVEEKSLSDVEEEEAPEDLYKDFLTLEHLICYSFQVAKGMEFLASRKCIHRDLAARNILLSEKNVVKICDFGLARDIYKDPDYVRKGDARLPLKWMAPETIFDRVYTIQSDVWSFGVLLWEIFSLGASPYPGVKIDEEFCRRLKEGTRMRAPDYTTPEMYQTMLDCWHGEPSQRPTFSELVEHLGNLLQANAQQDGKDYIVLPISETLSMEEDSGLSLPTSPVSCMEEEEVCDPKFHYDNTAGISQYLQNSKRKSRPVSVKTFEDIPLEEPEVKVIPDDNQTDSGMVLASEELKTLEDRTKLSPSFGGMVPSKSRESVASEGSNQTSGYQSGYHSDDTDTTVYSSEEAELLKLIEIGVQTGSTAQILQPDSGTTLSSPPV

PC-3 [7] = assay: Potency index, ratio of sorafenib IC50 to compound IC50 for human PC3 cells; type: functional
MCF7 [8] = assay: as §1; type: functional, cell-based
A549 = assay: as §2; type: functional, cell-based
HepG2 [9] = assay: as §3; type: functional, cell-based
PC-3 [10] = assay: as §4; type: functional, cell-based
MCF7 [11] = assay: Potency index, ratio of sorafenib IC50 to compound IC50 for human MCF7 cells; type: functional
HepG2 [12] = assay: Potency index, ratio of sorafenib IC50 to compound IC50 for human HepG2 cells; type: functional

SMILES	pIC50 [1]	pIC50 [2]	pIC50 [3]	pIC50 [4]	also measured
CNC(=O)c1cc(Oc2ccc(C(=O)/C=C/c3ccc(Cl)c(Cl)c3)cc2)ccn1	4.88	4.47	4.94	5.08	
CNC(=O)c1cc(Oc2ccc(NC(=O)Nc3ccc(Cl)c(C(F)(F)F)c3)cc2)ccn1 [SORAFENIB]	5.50	5.53	5.46	5.49	
CNC(=O)c1cc(Oc2ccc(/C=C/C(=O)c3ccc([N+](=O)[O-])cc3)cc2)ccn1	4.27		4.38		
CNC(=O)c1cc(Oc2ccc(C(=O)/C=C/c3ccccc3)cc2)ccn1	5.22	5.30	5.18	5.50	pIC50 [5]: 5.62; pIC50 [6]: 5.96; Ratio IC50 (PC-3 [7]): 1.02
CNC(=O)c1cc(Oc2ccc(C(=O)/C=C/c3ccc(Br)cc3)cc2)ccn1	< 4.30	< 4.30	< 4.30	4.73	
CNC(=O)c1cc(Oc2ccc(C(=O)/C=C/c3cccc(Cl)c3Cl)cc2)ccn1		< 4.30	< 4.30	< 4.30	
CNC(=O)c1cc(Oc2ccc(C(=O)/C=C/c3ccc([N+](=O)[O-])cc3)cc2)ccn1		< 4.30		4.96	
CNC(=O)c1cc(Oc2ccc(C(=O)/C=C/c3cccc(Br)c3)cc2)ccn1	4.98	5.00	5.54	5.47	Activity (MCF7 [8]): Dose-dependent effect; pIC50 [5]: 5.54; Activity (A549): Dose-dependent effect; pIC50 [6]: 6.14; Activity (HepG2 [9]): Dose-dependent effect; Activity (PC-3 [10]): Dose-dependent effect
CNC(=O)c1cc(Oc2ccc(C(=O)/C=C/c3ccc(C#N)cc3)cc2)ccn1	5.02	4.58	5.27	5.41	
CNC(=O)c1cc(Oc2ccc(/C=C/C(=O)c3ccc(Cl)cc3)cc2)ccn1	4.76		4.44		
CNC(=O)c1cc(Oc2ccc(C(=O)/C=C/c3cc(OC)c(OC)c(OC)c3)cc2)ccn1	5.41	5.02	6.25	5.50	pIC50 [5]: 5.74; Ratio IC50 (MCF7 [11]): 1.03 - 6.14; pIC50 [6]: 5.49; Ratio IC50 (PC-3 [7]): 1.03 - 6.14; Ratio IC50 (HepG2 [12]): 6.14
CNC(=O)c1cc(Oc2ccc(C(=O)/C=C/c3ccc(F)cc3)cc2)ccn1	4.55	4.73	4.90	5.21	
CNC(=O)c1cc(Oc2ccc(C(=O)/C=C/c3cccc([N+](=O)[O-])c3)cc2)ccn1	< 4.30		< 4.30		
CNC(=O)c1cc(Oc2ccc(C(=O)/C=C/c3ccc(Cl)cc3Cl)cc2)ccn1	5.40	5.02	4.93	5.04	
CNC(=O)c1cc(Oc2ccc(/C=C/C(=O)c3ccc(Br)cc3)cc2)ccn1	5.15	4.70	4.66	5.45	
CNC(=O)c1cc(Oc2ccc(/C=C/C(=O)c3ccc(F)cc3)cc2)ccn1	5.69		4.91		pIC50 [5]: < 4.30; Ratio IC50 (MCF7 [11]): 1.55; pIC50 [6]: < 4.30
CNC(=O)c1cc(Oc2ccc(/C=C/C(=O)c3ccc(C)cc3)cc2)ccn1	4.60		< 4.30		
CNC(=O)c1cc(Oc2ccc(C(=O)/C=C/c3ccc(OC)c(OC)c3OC)cc2)ccn1	5.54		5.01		
CNC(=O)c1cc(Oc2ccc(C(=O)/C=C/c3ccc(F)cc3Cl)cc2)ccn1	4.68	4.68	5.14	5.32	
CNC(=O)c1cc(Oc2ccc(C(=O)/C=C/c3ccc(OC)cc3)cc2)ccn1		< 4.30		< 4.30	
